{"source": "patent US20080039431A1", "about": "“Method of improving plant growth by reducing viral infections” (priority 2006, published 2008)", "key": {"[1]": {"system": "tomato spotted wilt virus (TSWV)", "experiment": "Tobacco drench / broadcast spray trial (Example 8)", "assay_type": "in vivo, tobacco (Nicotiana tabacum)", "conditions": "acibenzolar-S-methyl 2.47 g ai/Ha broadcast spray", "description": "Cultivation—A trial on tobacco (Nicotiana tabacum) was initiated in Molino, Fla., to see if drenches of prothioconazole alone and in combination with the insecticide imidacloprid could control TSWV in tobacco. Plants of cultivar C-371 Gold were transplanted on April 28 into 9.1 meter plots with three replications. All eight treatments were applied after transplanting on May 1. Foliar treatments were applied as a broadcast spray, while drenches were applied as in Example 6. Acibenzolar-S-methyl is a plant defense activator used to control TSWV in tobacco.\nTreatments— • Untreated • Imidacloprid@0.01 g imidacloprid/plant • Imidacloprid@0.015 g Imidacloprid/plant • Prothioconazole@0.0084 g active ingredient/plant • Prothioconazole@0.0084 g active ingredient/plant+Imidacloprid@0.01 g imidacloprid/plant • Prothioconazole@0.0084 g active ingredient/plant+Imidacloprid@0.015 g […] label. • Acibenzolar-S-methyl@2.47 g active ingredient/Ha as a broadcast spray as per label.\nTSWV rating—For TSWV incidence determination the percentage of plants with TSWV symptoms (chlorosis and stunting) was determined for the eight treatments as in Example 6."}, "[2]": {"system": "tomato spotted wilt virus (TSWV)", "experiment": "Bell pepper drench trial (Example 7)", "assay_type": "in vivo, bell pepper (Capsicum annum L.)", "conditions": "for Percent control of incidence of TSWV in bell peppers: Abbott's formula; for Percent incidence TSWV in bell peppers: drench, prothioconazole 0.0084 g ai/plant, imidacloprid 0.01 g/plant", "procedure": "Cultivation—A trial on bell pepper (Capsicum annum L.) was initiated in Molino, Fla. to see if drenches of prothioconazole alone and in combination with the insecticide imidacloprid could control TSWV in pepper. Bell pepper plants were transplanted on April 11 into 9.1 meter plots with three replications as in Example 6. Treatments were applied as a drench in 40 ml water per plant (7 days after transplanting) on April 18 as in Example 6.\nTreatments— • Untreated—no in-furrow treatment. • Imidacloprid—imidacloprid@0.01 g imidacloprid/plant. • Prothioconazole—prothioconazole@0.0084 g prothioconazole/plant. • Prothioconazole+Imidacloprid—prothioconazole@0.0084 g active ingredient/plant+imidacloprid@0.01 g imidacloprid/plant.\nTSWV rating—For TSWV incidence determination, the percentage of plants with TSWV symptoms (chlorosis and stunting) was determined for the four treatments at 21, 29, 38, and 47 days after treatment as in Example 6.\nSynergy formula—The Colby formula for proof of synergy was used in Example 7 as in Example 6."}, "[3]": {"system": "tomato spotted wilt virus (TSWV)", "experiment": "Replicated tomato drench trial (Example 6)", "assay_type": "in vivo, tomato (Lycopersicon esculentum MILL.)", "conditions": "prothioconazole 0.0084 g ai/plant, imidacloprid 0.01 g/plant; for Percent control of incidence of TSWV in tomatoes: Abbott's formula; for Percent incidence of TSWV in tomatoes: drench", "procedure": "Cultivation—A replicated trial on tomato (Lycopersicon esculentum MILL.) was initiated in Molino, Fla. to determine if drenches of prothioconazole alone and in combination with the insecticide imidacloprid would suppress TSWV in tomato. Tomato plants, cultivar FL 47 were transplanted on April 11 into 4 rows, each 9.1 meters long, 60 plants per plot, with three replications. Treatments were applied, into a shallow bowl dug at the base of each plant, as a drench in 40 ml water per plant (6 days after transplanting) on April 17. Treatments— • Untreated—no in-furrow treatment • Imidacloprid@0.01 g imidacloprid/plant. • Prothioconazole—prothioconazole@0.0084 g active ingredient/plant. • Prothioconazole+Imidacloprid—prothioconazole@0.0084 g active ingredient/plant+imidacloprid@0.01 g imidacloprid/plant. TSWV rating—University researchers recommend buffers in TSWV testing. Therefore, the center two rows (30 plants) per plot were used for virus ratings with the outer two rows acting as buffers. TSWV incidence determinations were made based on the presence or absence of TSWV symptoms (chlorosis and stunting) per plant. The four treatments were rated at 21, 29, and 39 days after treatment. Synergy formula—The Colby formula for proof of synergy was used in Example 6. The percent incidence values were converted to percent control with Abbotts's formula (1-treated/untreated)*100. Percent control values for solo treatment X and solo treatment Y, were entered into the Colby formula. When the value determined from the plots with both treatment X and Y applied together is greater than the value determined by the Colby formula then synergy is indicated. The formula is: X+Y−(X*Y/100)."}, "[4]": {"conditions": "14 days after treatment, prothioconazole 0.0084 g ai/plant, imidacloprid 0.01 g/plant (drench)"}, "[5]": {"conditions": "21 days after treatment, prothioconazole 0.0084 g ai/plant, imidacloprid 0.01 g/plant (drench)"}, "[6]": {"conditions": "38 days after treatment, prothioconazole 0.0084 g ai/plant, imidacloprid 0.01 g/plant (drench)"}}, "data": [{"smiles": "O=[N+]([O-])NC1=NCCN1Cc1ccc(Cl)nc1", "note": "[Imidacloprid, imidacloprid]", "values": [{"measurement": "Percent incidence TSWV in tobacco", "setting": "[1]; 14 days after treatment, imidacloprid 0.015 g/plant, prothioconazole 0.0084 g ai/plant (drench)", "value": 23.9, "unit": "%"}, {"measurement": "Percent incidence TSWV in tobacco", "setting": "[1]; [4]", "value": 23.9, "unit": "%"}, {"measurement": "Percent incidence TSWV in tobacco", "setting": "[1]; 21 days after treatment, imidacloprid 0.015 g/plant, prothioconazole 0.0084 g ai/plant (drench)", "value": 25.5, "unit": "%"}, {"measurement": "Percent incidence TSWV in tobacco", "setting": "[1]; [5]", "value": 24.4, "unit": "%"}, {"measurement": "Percent incidence TSWV in tobacco", "setting": "[1]; 38 days after treatment, imidacloprid 0.015 g/plant, prothioconazole 0.0084 g ai/plant (drench)", "value": 45.5, "unit": "%"}, {"measurement": "Percent incidence TSWV in tobacco", "setting": "[1]; [6]", "value": 45.0, "unit": "%"}, {"measurement": "Percent control of incidence of TSWV in bell peppers", "setting": "[2]; 21 days after treatment", "value": 26.14, "unit": "%"}, {"measurement": "Percent incidence TSWV in bell peppers", "setting": "[2]; 21 days after treatment", "value": 17.8, "unit": "%"}, {"measurement": "Percent control of incidence of TSWV in bell peppers", "setting": "[2]; 29 days after treatment", "value": 45.84, "unit": "%"}, {"measurement": "Percent incidence TSWV in bell peppers", "setting": "[2]; 29 days after treatment", "value": 25.4, "unit": "%"}, {"measurement": "Percent control of incidence of TSWV in bell peppers", "setting": "[2]; 38 days after treatment", "value": 25.49, "unit": "%"}, {"measurement": "Percent incidence TSWV in bell peppers", "setting": "[2]; 38 days after treatment", "value": 38.3, "unit": "%"}, {"measurement": "Percent control of incidence of TSWV in bell peppers", "setting": "[2]; 47 days after treatment", "value": 19.32, "unit": "%"}, {"measurement": "Percent incidence TSWV in bell peppers", "setting": "[2]; 47 days after treatment", "value": 42.6, "unit": "%"}, {"measurement": "Increase of TSWV level from 38 DAT to 47 DAT", "setting": "[2]; bell pepper, untreated increased by 1.4 percent", "value": "roughly 4.5%"}, {"measurement": "Percent control of incidence of TSWV in tomatoes", "setting": "[3]; 21 days after treatment", "value": 65.07, "unit": "%"}, {"measurement": "Percent incidence of TSWV in tomatoes", "setting": "[3]; 21 days after treatment", "value": 10.2, "unit": "%"}, {"measurement": "Percent control of incidence of TSWV in tomatoes", "setting": "[3]; 29 days after treatment", "value": 50.52, "unit": "%"}, {"measurement": "Percent incidence of TSWV in tomatoes", "setting": "[3]; 29 days after treatment", "value": 33.4, "unit": "%"}, {"measurement": "Percent control of incidence of TSWV in tomatoes", "setting": "[3]; 39 days after treatment", "value": 41.30, "unit": "%"}, {"measurement": "Percent incidence of TSWV in tomatoes", "setting": "[3]; 39 days after treatment", "value": 49.6, "unit": "%"}]}, {"smiles": "CSC(=O)c1cccc2nnsc12", "note": "[acibenzolar-S-methyl]", "values": [{"measurement": "Percent incidence TSWV in tobacco", "setting": "[1]; [4]", "value": 36.7, "unit": "%"}, {"measurement": "Percent incidence TSWV in tobacco", "setting": "[1]; [5]", "value": 46.7, "unit": "%"}, {"measurement": "Percent incidence TSWV in tobacco", "setting": "[1]; [6]", "value": 53.9, "unit": "%"}]}]}
